This passage reports pest or weed control and melting point results from patent publication US9434684B2, “Oxime-substituted amide compound and pest control agent” (Nissan Chemical Industries, Ltd., priority 2012, dated 2016).

Data set [1] relates to Sclerotinia sclerotiorum. The data set can be described thus: Preventive effect against cucumber stem rot. It is filed as in vivo. Particulars: 48 h, 100 ppm solution (*), 2 days.
The test system of data set [2] is Phaeosphaeria nodorum (synonym: Septoria nodorum). Description: Preventive effect against wheat glume blotch. It is filed as in vivo. Particulars: Parastagonospora nodorum, 192 h, 100 ppm solution (*), 2 + 6 days.
The test system of data set [3] is Botrytis cinerea. The data set can be described thus: Preventive effect against cucumber gray mold (spore inoculation). It is filed as in vivo. Particulars: 72 h, cucumber leaves, 100 ppm solution (*), 3 days.
For data set [4], the system named is Botrytis cinerea. Description: Preventive effect against cucumber gray mold (mycelium inoculation). Format: in vivo. Particulars: 48 h, 100 ppm solution (*), 2 days.
Data set [5] deals with Sclerotinia sclerotiorum. Description: Preventive effect against cucumber stem rot. It is filed as in vivo. Particulars: 48 h, test solution A 500 ppm, 2 days. Here is the method: Compounds of the present invention were dissolved in a solvent for emulsion (a mixture of Sorpol (registered trademark) 3005XL (manufactured by Toho Chemical Industry Co., Ltd.): N-methylpyrrolidone:Solvesso (registered trademark) 200 (manufactured by ExxonMobil Chemical) in a ratio of 1:5:2) to prepare 20% emulsifiable concentrates. Then, distilled water was added to dilute the emulsifiable concentrates to the predetermined concentration (500 ppm), and the obtained solutions were used in the following Test Examples 1 to 7. Cucumber (cultivar: Sagami Hanjiro) was planted in 90 cm^3 plastic pots, and in the seed leaf stage, 5 ml per pot of test solutions A of the compounds of the present invention were applied. After drying in air, the pots were put in a plastic container, and agar blocks (diameter: 5 mm) containing Sclerotinia sclerotiorum preliminarily cultivated in a PDA medium were inoculated to the seed leaves of the cucumber treated with the solutions. After the inoculation, the plastic container was covered with a plastic sheet and humidified, and placed at 20° C. for 2 days, whereupon the proportion of the formed lesion in the inoculated leaves was measured to calculate the control value in accordance with the same formula as in Test Example 1. Here, the test was carried out in duplicate.

The test system of the next data set is Meloidogyne incognita. Description: Preventive effect on Meloidogyne incognita (garden balsam seedlings, root knot). It is filed as in vivo. Particulars: 504 h, test solution B 100 ppm, 1 ml per seedling, 3 weeks, read-out: efficacy (damage degree, root knot, relative to non-treated plot). Here is the method: Compounds of the present invention were dissolved in dimethylsulfoxide to prepare 1% solutions. Then, distilled water was added to dilute the solutions to the predetermined concentration (100 ppm), and the obtained solutions were used in the following Test Examples 8 to 12. 1 ml per seedling of test solutions B of the compounds of the present invention were treated to the bases of garden balsam seedlings (about 2 weeks after budding) planted in a cell tray of which each cell was filled with 10 g of soil. 1 Hour after the application, 1 ml per cell of water containing Meloidogyne incognita 2 L larvae (100 2 L larvae/1 ml) was applied to the bases. The tray was placed in a greenhouse for 3 weeks, and the root knot level formed on the root was determined in accordance with the following damage index and the damage degree to calculate the efficacy (%) relative to the non-treated plot in accordance with the following formula. <Damage Index> 0: No knot observed. 1: Knot observed on a part of the root system. 2: Knot observed on the entire root system. 3: Large knot observed. 4: Large knot observed on the entire root system. [Damage degree]=[Σ(damage index×number of seedlings at each index)/(4×number of seedlings investigated)]×100 Efficacy(%)=[1−(damage degree in treated plot/damage degree in non-treated plot)]×100

Take `CC(C)O/N=C(/CNC(=O)c1ccccc1C(F)(F)F)c1ncc(C(F)(F)F)cc1Cl` [Compound No. 2-020, (Z)—N-[2-[3-chloro-5-(trifluoromethyl)pyridin-2-yl]-2-(isopropoxyimino)ethyl]-2-(trifluoromethyl)benzamide]: the melting point lay in the range of 97 to 98 °C. The pest or weed control at 100 ppm with Sclerotinia sclerotiorum [1] is no less than 70%. In addition, the pest or weed control at 100 ppm in data set [2] is no less than 70%. Moreover, the pest or weed control at 100 ppm in the data set with Botrytis cinerea [3] was no less than 70%. The compound also yielded a pest or weed control at 100 ppm with Botrytis cinerea [4] of no less than 70%.

`CO/N=C(/CNC(=O)c1ccccc1C(F)(F)F)c1ncc(Cl)cc1Cl` [Compound No. 2-114, (Z)—N-[2-(3,5-dichloropyridin-2-yl)-2-(methoxyimino)ethyl]-2-(trifluoromethyl)benzamide] returned a melting point of 88 to 89 °C. This compound displayed a pest or weed control at 500 µg/mL in the data set on Sclerotinia sclerotiorum [5] of no less than 70%. The compound also gave a pest or weed control at 100 ppm in the data set with Botrytis cinerea [3] of no less than 70%. This compound had a pest or weed control at 100 ppm with Botrytis cinerea [4] of no less than 70%. Also, in the data set on Meloidogyne incognita, the pest or weed control at 100 µg/mL is no less than 50%.

What is called melting point is the temperature of the solid-liquid transition.
